Among the data in ChEMBL document CHEMBL3994622, “Design and synthesis of new RAF kinase-inhibiting antiproliferative quinoline derivatives. Part 2: Diarylurea derivatives” (Eur J Med Chem, 2017) are inhibition and growth values, retold here.

In test [1] the target is Receptor-type tyrosine-protein kinase FLT3 (Homo sapiens) (UniProt P36888). Nature of the test: Inhibition of human FLT3 at 10 uM using EAIYAAPFAKKK as substrate in presence of [33P]ATP by Hotspot assay relative to control.
For a further test, the system named is LOX IMVI. Nature of the test: Growth inhibition of human LOXIMVI cells assessed as cell growth at 3 uM incubated for 48 hrs by sulforhodamine B assay relative to control. The test is classed as functional. The conditions noted are these: read-out: Activity. A general note: In SRB staining, fixed cells bind dye roughly in proportion to their protein.
Test [2] has as its system EKVX. Nature of the test: Growth inhibition of human EKVX cells assessed as cell growth at 0.03 uM incubated for 48 hrs by sulforhodamine B assay relative to control. The test is classed as functional. The conditions noted are these: read-out: Activity.
The target in test [3] is Platelet-derived growth factor receptor beta (Homo sapiens) (UniProt P09619). Nature of the test: Inhibition of human PDGFRbeta at 10 uM using poly[Glu:Tyr] (4:1) as substrate in presence of [33P]ATP by Hotspot assay relative to control.
In a further test the test system is SW-620. Kind of test: Growth inhibition of human SW620 cells assessed as cell growth at 5 uM incubated for 48 hrs by sulforhodamine B assay relative to control. In kind it is functional. Conditions: SW-620, 48 h, read-out: Activity.
Another test deals with OVCAR-4. Kind of test: Growth inhibition of human OVCAR4 cells assessed as cell growth at 0.005 uM incubated for 48 hrs by sulforhodamine B assay relative to control. Conditions: OVCAR-4, 48 h, read-out: Activity. In kind it is functional.
For test [4], the system named is KM12. Kind of test: Growth inhibition of human KM12 cells assessed as cell growth at 5 uM incubated for 48 hrs by sulforhodamine B assay relative to control. The conditions noted are these: KM12, 48 h, read-out: Activity. The test is classed as functional.
The next test concerns OVCAR-3. Nature of the test: Growth inhibition of human OVCAR3 cells assessed as cell growth at 0.5 uM incubated for 48 hrs by sulforhodamine B assay relative to control. The test is classed as functional. Conditions: OVCAR-3, 48 h, read-out: Activity.
Test [5] concerns NCI-H226. Kind of test: Growth inhibition of human NCI-H226 cells assessed as cell growth at 0.05 uM incubated for 48 hrs by sulforhodamine B assay relative to control. The test is classed as functional. Conditions: NCI-H226, 48 h, read-out: Activity.
The test system of the next test is PC-3. Nature of the test: Growth inhibition of human PC3 cells assessed as cell growth at 0.5 uM incubated for 48 hrs by sulforhodamine B assay relative to control. In kind it is functional. Conditions: PC-3, 48 h, read-out: Activity.
Test [6] concerns UO-31. Nature of the test: Growth inhibition of human UO31 cells assessed as cell growth at 0.05 uM incubated for 48 hrs by sulforhodamine B assay relative to control. In kind it is functional. Conditions: UO-31, 48 h, read-out: Activity.
The test system of a further test is IGROV-1. Kind of test: Growth inhibition of human IGROV1 cells assessed as cell growth at 0.005 uM incubated for 48 hrs by sulforhodamine B assay relative to control. Conditions: IGROV-1, 48 h, read-out: Activity. In kind it is functional.
Test [7] concerns SK-MEL-2. Nature of the test: Growth inhibition of human SK-MEL-2 cells assessed as cell growth at 5 uM incubated for 48 hrs by sulforhodamine B assay relative to control. The test is classed as functional. Conditions: SK-MEL-2, 48 h, read-out: Activity.
The test system of another test is MCF7. Kind of test: Growth inhibition of human MCF7 cells assessed as cell growth at 50 uM incubated for 48 hrs by sulforhodamine B assay relative to control. In kind it is functional. The conditions noted are these: MCF7, 48 h, read-out: Activity.
In test [8] the test system is KM12. Nature of the test: Growth inhibition of human KM12 cells assessed as cell growth at 0.5 uM incubated for 48 hrs by sulforhodamine B assay relative to control. Conditions: KM12, 48 h, read-out: Activity. The test is classed as functional.
Test [9] deals with UACC-257. Kind of test: Growth inhibition of human UACC257 cells assessed as cell growth at 0.005 uM incubated for 48 hrs by sulforhodamine B assay relative to control. In kind it is functional. Conditions: UACC-257, 48 h, read-out: Activity.
For test [10], the system named is SK-MEL-28. Kind of test: Growth inhibition of human SK-MEL-28 cells assessed as cell growth at 0.005 uM incubated for 48 hrs by sulforhodamine B assay relative to control. The test is classed as functional. The conditions noted are these: SK-MEL-28, 48 h, read-out: Activity.
In a further test the test system is DU-145. Nature of the test: Growth inhibition of human DU145 cells assessed as cell growth at 0.05 uM incubated for 48 hrs by sulforhodamine B assay relative to control. In kind it is functional. Conditions: DU-145, 48 h, read-out: Activity.
Test [11] concerns NCI-H226. Kind of test: Growth inhibition of human NCI-H226 cells assessed as cell growth at 5 uM incubated for 48 hrs by sulforhodamine B assay relative to control. Conditions: NCI-H226, 48 h, read-out: Activity. In kind it is functional.
Test [12] relates to SK-MEL-2. Kind of test: Growth inhibition of human SK-MEL-2 cells assessed as cell growth at 50 uM incubated for 48 hrs by sulforhodamine B assay relative to control. In kind it is functional. The conditions noted are these: SK-MEL-2, 48 h, read-out: Activity.
In a further test the test system is HCC 2998. Kind of test: Growth inhibition of human HCC2998 cells assessed as cell growth at 50 uM incubated for 48 hrs by sulforhodamine B assay relative to control. The test is classed as functional. Conditions: HCC 2998, 48 h, read-out: Activity.
Test [13] has as its system EKVX. Nature of the test: Growth inhibition of human EKVX cells assessed as cell growth at 0.05 uM incubated for 48 hrs by sulforhodamine B assay relative to control. The test is classed as functional. The conditions noted are these: read-out: Activity.
In a further test the test system is NCI-H460. Kind of test: Growth inhibition of human NCI-H460 cells assessed as cell growth at 5 uM incubated for 48 hrs by sulforhodamine B assay relative to control. The test is classed as functional. Conditions: NCI-H460, 48 h, read-out: Activity.
In test [14] the test system is SK-OV-3. Nature of the test: Growth inhibition of human SKOV3 cells assessed as cell growth at 0.005 uM incubated for 48 hrs by sulforhodamine B assay relative to control. In kind it is functional. The conditions noted are these: SK-OV-3, 48 h, read-out: Activity.
The next test deals with CAKI-1. Nature of the test: Growth inhibition of human Caki1 cells assessed as cell growth at 0.005 uM incubated for 48 hrs by sulforhodamine B assay relative to control. In kind it is functional. Conditions: CAKI-1, 48 h, read-out: Activity.
Test [15] concerns SK-OV-3. Kind of test: Growth inhibition of human SKOV3 cells assessed as cell growth at 0.05 uM incubated for 48 hrs by sulforhodamine B assay relative to control. The test is classed as functional. The conditions noted are these: SK-OV-3, 48 h, read-out: Activity.
The next test has as its system UACC-62. Nature of the test: Growth inhibition of human UACC62 cells assessed as cell growth at 5 uM incubated for 48 hrs by sulforhodamine B assay relative to control. The test is classed as functional. The conditions noted are these: UACC-62, 48 h, read-out: Activity.
Another test concerns A498. Kind of test: Growth inhibition of human A498 cells assessed as cell growth at 0.5 uM incubated for 48 hrs by sulforhodamine B assay relative to control. The conditions noted are these: A498, 48 h, read-out: Activity. The test is classed as functional.
Another test concerns SF-295. Nature of the test: Growth inhibition of human SF295 cells assessed as cell growth at 50 uM incubated for 48 hrs by sulforhodamine B assay relative to control. The test is classed as functional. The conditions noted are these: SF-295, 48 h, read-out: Activity.
The next test deals with SR. Kind of test: Growth inhibition of human SR cells assessed as cell growth at 0.05 uM incubated for 48 hrs by sulforhodamine B assay relative to control. In kind it is functional. Conditions: read-out: Activity.
For test [16], the system named is UACC-257. Kind of test: Growth inhibition of human UACC257 cells assessed as cell growth at 5 uM incubated for 48 hrs by sulforhodamine B assay relative to control. In kind it is functional. The conditions noted are these: UACC-257, 48 h, read-out: Activity.
Test [17] has as its system UO-31. Nature of the test: Growth inhibition of human UO31 cells assessed as cell growth at 5 uM incubated for 48 hrs by sulforhodamine B assay relative to control. In kind it is functional. The conditions noted are these: UO-31, 48 h, read-out: Activity.
Test [18] concerns SK-MEL-28. Kind of test: Growth inhibition of human SK-MEL-28 cells assessed as cell growth at 0.05 uM incubated for 48 hrs by sulforhodamine B assay relative to control. Conditions: SK-MEL-28, 48 h, read-out: Activity. The test is classed as functional.
The subject of the next test is SN12C. Nature of the test: Growth inhibition of human SN12C cells assessed as cell growth at 5 uM incubated for 48 hrs by sulforhodamine B assay relative to control. Conditions: read-out: Activity. In kind it is functional.

Structures are written as SMILES.

As usually defined, the inhibition is the drop in the measured response relative to a control, in per cent.

Platelet-derived growth factor receptor beta (Homo sapiens), sequence (P09619 whole entry): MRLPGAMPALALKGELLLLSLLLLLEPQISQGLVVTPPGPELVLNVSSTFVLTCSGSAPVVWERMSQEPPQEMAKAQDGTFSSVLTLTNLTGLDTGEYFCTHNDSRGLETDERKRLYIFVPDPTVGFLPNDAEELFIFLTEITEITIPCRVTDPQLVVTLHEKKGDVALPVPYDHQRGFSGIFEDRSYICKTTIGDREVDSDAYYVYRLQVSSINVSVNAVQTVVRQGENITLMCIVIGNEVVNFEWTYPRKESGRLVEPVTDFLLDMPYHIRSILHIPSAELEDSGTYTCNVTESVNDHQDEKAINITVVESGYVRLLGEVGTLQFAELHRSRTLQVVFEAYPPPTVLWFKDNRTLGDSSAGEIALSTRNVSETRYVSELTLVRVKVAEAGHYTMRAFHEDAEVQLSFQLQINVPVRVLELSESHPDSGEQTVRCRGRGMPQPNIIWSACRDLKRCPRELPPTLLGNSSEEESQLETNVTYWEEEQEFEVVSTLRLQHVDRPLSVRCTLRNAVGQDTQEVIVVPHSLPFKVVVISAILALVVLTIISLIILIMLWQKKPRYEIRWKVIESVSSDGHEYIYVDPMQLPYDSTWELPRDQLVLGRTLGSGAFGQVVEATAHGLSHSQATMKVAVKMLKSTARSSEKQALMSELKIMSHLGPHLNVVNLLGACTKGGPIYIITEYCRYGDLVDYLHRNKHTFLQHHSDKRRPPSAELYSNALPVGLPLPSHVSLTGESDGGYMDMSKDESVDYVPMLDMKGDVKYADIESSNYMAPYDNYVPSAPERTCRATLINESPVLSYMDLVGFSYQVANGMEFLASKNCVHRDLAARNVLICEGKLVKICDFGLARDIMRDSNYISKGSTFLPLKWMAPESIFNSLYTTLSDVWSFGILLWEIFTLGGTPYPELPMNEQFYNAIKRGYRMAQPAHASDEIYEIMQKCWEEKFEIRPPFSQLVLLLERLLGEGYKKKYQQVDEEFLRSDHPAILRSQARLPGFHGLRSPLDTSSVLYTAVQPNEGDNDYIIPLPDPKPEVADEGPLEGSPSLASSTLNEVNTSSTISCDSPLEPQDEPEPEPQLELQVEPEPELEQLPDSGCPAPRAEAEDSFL
Receptor-type tyrosine-protein kinase FLT3 (Homo sapiens), sequence (P36888 whole entry): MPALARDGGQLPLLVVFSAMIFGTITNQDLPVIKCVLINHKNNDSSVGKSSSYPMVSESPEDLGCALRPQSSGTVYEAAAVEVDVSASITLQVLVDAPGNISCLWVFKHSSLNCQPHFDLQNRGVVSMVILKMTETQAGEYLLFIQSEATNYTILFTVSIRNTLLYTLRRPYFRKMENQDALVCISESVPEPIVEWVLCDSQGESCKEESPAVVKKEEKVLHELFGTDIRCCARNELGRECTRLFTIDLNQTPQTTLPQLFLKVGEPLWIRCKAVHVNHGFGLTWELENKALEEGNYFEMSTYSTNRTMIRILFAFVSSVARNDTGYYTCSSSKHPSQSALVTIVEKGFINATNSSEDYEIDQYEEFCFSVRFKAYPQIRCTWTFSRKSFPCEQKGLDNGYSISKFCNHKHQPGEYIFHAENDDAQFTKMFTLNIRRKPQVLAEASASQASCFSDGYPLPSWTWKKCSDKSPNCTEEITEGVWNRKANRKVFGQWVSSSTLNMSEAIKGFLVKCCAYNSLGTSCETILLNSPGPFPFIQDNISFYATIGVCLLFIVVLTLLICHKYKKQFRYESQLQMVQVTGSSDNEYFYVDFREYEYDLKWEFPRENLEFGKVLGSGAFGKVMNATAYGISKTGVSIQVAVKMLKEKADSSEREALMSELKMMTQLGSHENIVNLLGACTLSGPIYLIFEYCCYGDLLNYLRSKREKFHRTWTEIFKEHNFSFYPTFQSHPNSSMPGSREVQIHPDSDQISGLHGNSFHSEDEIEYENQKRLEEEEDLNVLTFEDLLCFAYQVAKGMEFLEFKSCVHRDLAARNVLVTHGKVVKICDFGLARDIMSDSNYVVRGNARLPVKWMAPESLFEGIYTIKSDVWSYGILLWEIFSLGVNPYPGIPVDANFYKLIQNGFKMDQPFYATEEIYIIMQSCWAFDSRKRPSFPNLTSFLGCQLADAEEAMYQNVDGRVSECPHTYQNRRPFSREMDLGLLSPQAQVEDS

Consider `COc1cc2cc(Oc3ccc(NC(=O)Nc4ccc(Cl)c(C(F)(F)F)c4)cc3)c(C)nc2cc1OC`, for which the inhibition in test [1] is 33.5%; in test [3], 29.5%. For the same molecule, the growth at 3 µM with LOX IMVI is 12%. In the test on EKVX [2], the growth at 0.03 µM was 97%.
On to `COc1cc2cc(Oc3ccc(NC(=O)Nc4cccc(C(F)(F)F)c4)cc3)c(C)nc2cc1OC`, for which the growth at 5 µM is 20% in the test on SW-620; 5% in the test on KM12 [4]; -34% in the test on SK-MEL-2 [7]; 3% in the test on NCI-H226 [11]; 5% with NCI-H460; 22% in the test on UACC-62. The growth at 5 µM with UACC-257 [16] is -13%; in the test with UO-31 [17] it was 12%; in the test on SN12C, 22%. In addition, the growth at 0.005 µM in the test with OVCAR-4 was 92%; in the test with IGROV-1, 101%; with UACC-257 [9], 95%; in the test with SK-MEL-28 [10], 101%; with SK-OV-3 [14], 98%; in the test with CAKI-1, 98%. In addition, the growth at 0.5 µM in the test on OVCAR-3 was found to be 105%; in the test with PC-3, 88%; in the test with KM12 [8], 88%; in the test on A498, 85%. Also, the growth at 0.05 µM with NCI-H226 [5] came out at 104%; in the test with UO-31 [6] it was 91%; in the test with DU-145, 94%; with EKVX [13] it was 102%; in the test on SK-OV-3 [15], 95%; with SR, 93%. The growth at 0.05 µM in the test with SK-MEL-28 [18] came out at 98%. The growth at 50 µM with MCF7 was -89%; in the test on SK-MEL-2 [12], -87%; with HCC 2998 it was 4%; with SF-295 it was -63%.
